Measurements published in US11484543B2, “Compositions and methods for diagnosing and treating diseases and disorders associated with mutant KCNJ5” (The Rockefeller University, priority 2017, dated 2022).
Read-outs that look alike come from different tables or passages of the source.

Molecular target: T1, KCNJ5^G151R (Homo sapiens, UniProt P48544, G151R)
T1 construct: expressed in transfected cells
T1 sequence (P48544 1-419 G151R): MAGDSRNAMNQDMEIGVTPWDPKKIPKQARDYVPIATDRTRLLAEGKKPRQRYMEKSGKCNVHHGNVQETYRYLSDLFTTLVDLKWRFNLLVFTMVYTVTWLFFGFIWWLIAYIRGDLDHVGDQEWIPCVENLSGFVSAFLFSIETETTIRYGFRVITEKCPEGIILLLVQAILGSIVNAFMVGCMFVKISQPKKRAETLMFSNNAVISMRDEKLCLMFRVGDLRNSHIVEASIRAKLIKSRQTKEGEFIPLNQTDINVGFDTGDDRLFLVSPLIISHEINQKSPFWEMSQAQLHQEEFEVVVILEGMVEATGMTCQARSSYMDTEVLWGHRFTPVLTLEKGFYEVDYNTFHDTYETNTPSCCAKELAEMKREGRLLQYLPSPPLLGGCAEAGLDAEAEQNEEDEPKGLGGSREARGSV
Experiment: cell-based
Type: cell-based
Summary of the method: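 Viability is read as cellular ATP by CellTiter-Glo luminescence 72 h later at 37 °C. Uninduced and induced untreated cells set 100% and 0% effect; curves use a 4-parameter logistic fit.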

[1] = 10-point dilution 20 to 0.0391 μM, N=3, four-parameter fit

Compound	G151R maximum inhibition [1] [%]	G151R minimum inhibition [1] [%]	viability at 10 µM (HEK293, 72 h, mean of primary screen and hit pick, read-out: mean % effect) [%]	viability at 10 µM (HEK293, ATP level 72 h after induction, uninduced = 100%, induced = 0% effect, first of the two runs (primary screen / hit pick), read-out: % effect (1)) [%]	viability at 10 µM (HEK293, ATP level 72 h after induction, uninduced = 100%, induced = 0% effect, second of the two runs (primary screen / hit pick, confirmatory testing), read-out: % effect (2)) [%]	rescue of ATP level (dose-response at 1.1, 3.3 and 10 μM)	inhibition of KCNJ5^MUT (structure-activity statement) (macrolide series, dilution curves)	inhibition of KCNJ5^G151R by synthesized macrolide derivatives (tested as in FIG. 7 (FIGS. 9 and 10))
CC[C@H]1OC(=O)[C@H](C)[C@@H](O[C@H]2C[C@@](C)(OC)[C@@H](O)[C@H](C)O2)[C@H](C)[C@@H](O[C@@H]2O[C@H](C)C[C@H](N(C)C)[C@H]2O)[C@](C)(O)C[C@@H](C)/C(=N\OCOCCOC)[C@H](C)[C@@H](O)[C@]1(C)O [Roxithromycin, roxithromycin]	105.92	9.92	107	108	107	virtually complete rescue of ATP level	potent effects	–
N-demethyl-N-isobutyl-8,9-anhydroerythromycin A 6,9-hemiacetal [PLUX37]	–	–	–	–	–	–	–	significant inhibition
